Reference: patent US10273257B2, “Cancer cell-containing composition” (KING FAHD UNIVERSITY OF PETROLEUM AND MINERALS, priority 2016, dated 2019)
Where “and” joins values, the source holds several entries; their conditions need not be identical. Identical values can stand only once.

Assays:
MDA-MB231 cells = experiment: MTT assay for anticancer activity, MDA-MB231 cells; assay type: cell-based, human; settings: MDA-MB231 breast cancer cells, 3-day exposure protocol
Procedure: (§1) Human breast cancer cells (MDA-MB231, MCF-7) were grown in Dulbecco's modified Eagle's medium (DMEM) supplemented with 10% fetal bovine serum (FBS) and 1% penicillin (10,000 units) with streptomycin (10 mg) in a 74 cm^2 flask and incubated until 80% confluence was obtained in a humidified environment of 5% CO2-95% air at 37° C.
(§2) Cancer cells were seeded and maintained in quadruplicate in a 96-well tissue culture plate at 5×10^3 cells per well in 150 μl of the same medium. The cancer cells were incubated for 24 hours before the treatment. All compounds were dissolved in 50% DMSO. Therefore, DMSO was used as a negative control. Complexes 1-5 and cisplatin (positive control) at 0.01 μM, 0.05 μM, 0.1 μM, 1 μM, 5 μM, 10 μM, and 50 μM concentrations were prepared in DMEM. The final DMSO concentration, in each well, was less than 0.1%.
(§3) The cancer cells were treated with the synthesized compounds 1-5 and cisplatin and then incubated for […]. The medium from the wells was discarded and 100 μL of DMEM containing MTT (3-(4,5-dimethylthiazol-2-yl)-2,5-diphenyltetrazolium bromide) (5 mg/mL) was added to the wells. The cells were incubated in a CO2 incubator at 37° C. in the dark for 4 h. After incubation, a purple colored formazan (an artificial chromogenic dye, a product of the reduction of water […] tetrazolium salts, such as MTT, by dehydrogenases and reductases) was produced by the cells and appeared as dark crystals in the bottom of the wells. The medium from each well was discarded carefully to avoid disruption of the monolayer. 100 μL of isopropanol was added in each well. The solution was thoroughly mixed in the wells to dissolve the formazan crystals which ultimately results into a purple solution. The absorbance of the 96-well plate was taken at 570 nm with Mithras^2LB943 against a blank (e.g. unreduced MTT in isopropanol). All data presented are mean t standard deviation.
(§4) The in vitro cytotoxic effect of mixed ligand gold(I) complexes 1-5 against MDA-MB231 and MCF-7 were studied using the MTT assay. The in vitro cytotoxic activity depends on the exposure time and the concentrations of the complexes. For that reason, different concentrations of the complexes and a 3-day exposure protocol to determine the IC50 values for all five complexes and cisplatin were used.

CT-DNA = experiment: Fluorescence emission titration with CT-DNA (Scatchard); assay type: binding, calf; settings: complex 1.3×10^−4 M, excitation 275 nm, Tris-HCl/NaCl buffer, mean standard deviations ±0.07
Procedure: Fluorescence experiments were carried out at a constant concentration of the complexes with increasing CT-DNA concentrations. The binding constant, K, of the gold(I) complexes was determined from Scatchard eqs. (2) and (3) by employing emission titration (Liu, D. G.; Liao, P. J.; Fang, Z. Y.; Huang, S. S.; Sheng, L. G.; Yu, Q. R. Interaction of bis(ethylene)tin(bis(salicylidene)ethylenediamine) with DNA. Anal. Sci. 2002, 18 391-395; and Healy, F. E. Quantitative determination of DNA-ligand binding using fluorescence spectroscopy. J. Chem. Educ. 2007, 84, 1304-1307, each incorporated herein by reference in their entirety). CF=CT(I/Io−P)(1−P) (2) r/CF=K(n−r) (3) where CF is the free probe (i.e. free metal complex) concentration, CT is the total concentration of the probe added, I and Io are fluorescence intensities in the presence and absence of CT-DNA, respectively, r denotes a ratio of CB (CB=CT−CF) to the DNA concentration, i.e., the bound probe concentration to the DNA concentration, K is the binding constant, “n” is the binding site number, and P is the ratio of the observed fluorescence quantum yield of the bound probe to that of the free probe. The value P was obtained as the intercept by extrapolating from a plot of I/Io vs. 1/[DNA].
The fluorescence emission titration of complexes 1-5 was carried out in order to understand the nature of binding mode of these complexes with CT-DNA. This method is highly sensitive, reproducible, and accurate. In the absence of CT-DNA, all complexes 1-5 (concentration=1.3×10^−4 M) emitted strong luminescence when excited at 275 nm in Tris-HCl/NaCl buffer with an emission maximum appearing at 340 nm. However, the subsequent addition of CT-DNA from 0.067-0.5×10^−4 M caused a gradual enhancement in the fluorescence intensity of the complexes with no apparent change in the shape and position of the emission bands (FIGS. 10A-10E), which is indicative of a strong interaction of the Au(I) drug entities with CT DNA. The hydrophobic molecular structure of CT DNA could be responsible for enhancing the fluorescence quantum yield of complexes, leading to the higher fluorescence intensity with increasing concentration of CT DNA. In addition, energy transfer from CT-DNA to metal complexes could also induce fluorescence enhancement (Arjmand, F.; Jamsheera, A.; Afzal, M.; S. Tabassum, S. Enantiomeric Specificity of Biologically Significant Cu(II) and Zn(II) Chromone Complexes Towards DNA. Chirality. 2012, 24, 977-986, Tabassum, S.; Yadav, S.; Arjmand, F. Synthesis and mechanistic insight of glycosylated Cu^II/Ni^II—Sn2^IV heterobimetallic DNA binding agents: Validation of a specific Cu^II—Sn2^IV chemotherapeutic agent for human leukemic cell line K-562. J. Organomet. Chem. 2013, 745-746, 226-234, incorporated herein by reference in its entirety).

[1] = system: EB-DNA system (CT DNA treated with EB); experiment: Ethidium bromide displacement fluorescence quenching (Stern-Volmer); assay type: binding, calf; settings: EB-bound CT DNA, emission at 585-590 nm
Procedure: Luminescence titrations involving quenching experiments were conducted by adding increasing concentration of the complexes to a fixed concentration of EB-DNA system. The Tris-HCl buffer was used as a blank to make preliminary adjustments. The Stern-Volmer quenching constant, Ksv was obtained from the following equation (Lakowiez, R. J.; Webber, G. Quenching of fluorescence by oxygen. Probe for structural fluctuations in macromolecules. Biochem. 1973, 12, 4161-4170, incorporated herein by reference in its entirety). I0/I=1+KSV·r (4) where r is the ratio of total concentration of complex to that of DNA, and Io and I are the fluorescence intensities of EB in the absence and presence of complex.
A reliable method for studying the binding of molecules to nucleic acids is the fluorescence quenching method. Ethidium bromide (EB) is a planar cationic dye which is widely used as a sensitive fluorescence probe for native DNA. EB emits intense fluorescent light in the presence of DNA due to its strong intercalation between the adjacent DNA base pairs. The displacement technique is based on the decrease of fluorescence resulting from the displacement of EB from a DNA sequence by a quencher, and the quenching is due to the reduction of the number of binding sites on the DNA that are available to the EB (Ramachandran. E.; Raja, S. D.; Bhuvanesh, P. S. N.; Natarajan, K. Mixed ligand palladium(II) complexes of 6-methoxy-2-oxo-1,2-dihydroquinoline-3-carbaldehyde 4N-substituted thiosemicarbazones with triphenylphosphine co-ligand: Synthesis, crystal structure and biological properties. Dalton Trans. 2012, 41 13308-13323, incorporated herein by reference in its entirety). […] From the above data, it is clear that 4 replaces EB more effectively than other complexes, and this observation agreed with the results obtained from electronic absorption studies.

MCF-7 cells = experiment: MTT assay for anticancer activity, MCF-7 cells; assay type: cell-based, human; settings: MCF-7 breast cancer cells, 3-day exposure protocol
Procedure: as §1, §2, §3, §4

| Structure (SMILES) | IC50 (MDA-MB231 cells) | Scatchard binding constant K (CT-DNA) | Stern-Volmer quenching constant KSV [1] | IC50 (MCF-7 cells) |
| --- | --- | --- | --- | --- |
| CN(C)C(=S)[S][Au-][P+](C)(C)C [Complex 1, (Me)3PAu(S2CN{Me}2)] | 0.044 µM | 28000 M⁻¹ | 0.19 | 0.0078 µM |
| CCN(CC)C(=S)[S][Au-][P+](CC)(CC)CC [Complex 4, (Et)3PAu(S2CN{Et}2)] | 0.044 µM | 66000 M⁻¹ | 0.91 | 0.0053 µM |
| CCN(CC)C(=S)[S][Au-][P+](C)(C)C [Complex 3, (Me)3PAu(S2CN{Et}2)] | 0.043 µM | 57000 M⁻¹ | 0.67 | 0.0088 µM |
| CC[P+](CC)(CC)[Au-][S]C(=S)N(C)C [Complex 2, (Et)3PAu(S2CN{Me}2)] | 0.055 µM | 35000 M⁻¹ | 0.34 | 0.0064 µM |
| N.N.[Cl][Pt][Cl] [Cisplatin, reference compound] | 25.8 µM |  |  | 0.0059 µM |
| CC(C)[P+]([Au-][S]C(=S)N(C)C)(C(C)C)C(C)C [Complex 5, (i-Pr)3PAu(S2CN{Me}2)] | 0.7 µM | 19000 M⁻¹ | 0.10 | 0.0078 µM and 0.0079 µM |
